This assay has as its system Lymphocyte. In words: Immunosuppressive activity in lymphocytes by mixed lymphocyte reaction assay. The class given is functional, cell-based.

Our source for the IC50 values is ChEMBL document CHEMBL1156849, “Synthesis, immunosuppressive activity and structure-activity relationship study of a new series of 4-N-piperazinyl-thieno[2,3-d]pyrimidine analogues” (Bioorg Med Chem Lett, 2010).

Each structure is given as a SMILES string. Bounds are passed on as bounds.

The term IC50 denotes the concentration at which inhibition is half-maximal.

The compound `Nc1nc(N2CCN(C(=O)Nc3ccc(Cl)cc3)CC2)c2ccsc2n1` had a half-maximal inhibitory concentration (IC50) of 6700 nM.

`CC(C)N(C(=O)N1CCN(c2nc(N)nc3sc(-c4ccc(F)cc4)cc23)CC1)C(C)C` gave an IC50 of 8200 nM.

`Nc1nc(N2CCN(C(=O)C3CCCCC3)CC2)c2cc(-c3ccc(F)cc3)sc2n1` displayed an IC50 above 10000 nM.

Regarding `Nc1nc(N2CCN(C(=O)COc3ccccc3)CC2)c2ccsc2n1`, the IC50 was 780 nM.

`Nc1nc(N2CCN(C(=O)CCc3ccccc3)CC2)c2cc(-c3ccc(F)cc3)sc2n1` gave an IC50 of 6990 nM.

The compound `Cc1cccc(OCC(=O)N2CCN(c3nc(N)nc4sccc34)CC2)c1` displayed an IC50 of 210 nM.

In turn, `Nc1nc(N2CCN(C(=O)c3cccnc3)CC2)c2cc(-c3ccc(F)cc3)sc2n1` yielded an IC50 above 10000 nM.

Regarding `Cc1cccc(NC(=O)N2CCN(c3nc(N)nc4sccc34)CC2)c1`, the IC50 is 930 nM.

`COc1ccc(OCC(=O)N2CCN(c3nc(N)nc4sccc34)CC2)cc1`: the IC50 was 72 nM.

`Nc1nc(N2CCN(CCOc3ccccc3)CC2)c2ccsc2n1` came in with an IC50 of 9640 nM.

`Nc1nc(N2CCN(C(=O)COc3ccc(Cl)cc3)CC2)c2ccsc2n1` returned an IC50 of 330 nM.

Compound `Nc1nc(N2CCN(C(=O)COc3ccc(F)cc3)CC2)c2ccsc2n1` registered an IC50 of 66 nM.

`C/C=C/C[C@@H](C)[C@@H](O)[C@H]1C(=O)N[C@@H](CC)C(=O)N(C)CC(=O)N(C)[C@@H](CC(C)C)C(=O)N[C@@H](C(C)C)C(=O)N(C)[C@@H](CC(C)C)C(=O)N[C@@H](C)C(=O)N[C@H](C)C(=O)N(C)[C@@H](CC(C)C)C(=O)N(C)[C@@H](CC(C)C)C(=O)N(C)[C@@H](C(C)C)C(=O)N1C` [CYCLOSPORINE] had an IC50 of 54 nM.

The compound `Nc1nc(N2CCN(C(=O)COc3ccc(Br)cc3)CC2)c2ccsc2n1` registered an IC50 of 320 nM.

Take `CN(C(=O)CN1CCN(c2nc(N)nc3sccc23)CC1)c1ccccc1`: 8120 nM corresponded to half-maximal inhibition (IC50).
